The target in one assay is T1, AgamOBP20 (Anopheles gambiae, UniProt Q7Q9J3).
T1 sequence (Q7Q9J3 24-142): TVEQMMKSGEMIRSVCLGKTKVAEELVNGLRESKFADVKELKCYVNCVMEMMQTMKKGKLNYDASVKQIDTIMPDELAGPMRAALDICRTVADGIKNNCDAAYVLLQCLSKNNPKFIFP
Put plainly: Fluorescence competitive binding test (FCBT), 1-NPN probe. Also on record: species or system Anopheles gambiae s.s. The protocol: (§1) For recombinant OBPs, we first need to obtain the OBPs related genes. DNA of A. gambiae s.s. female adults was extracted following the procedure used in a previous study. The predicted AgamOBPs and AgamORs were detected using standard PCR with specific respective primers which were designed using Primer Premier 5 (Premier Biosoft, California, USA; Table S1). Each PCR mixture contained 1 μl of A. gambiae s.s. […] (200 ng·ml^−1; previously extracted using a DNA extraction kit from Transgen Biotech, Beijing, China), 12.5 μl prime STAR Max Premix (2 ×), 1.5 μl of each primer ([…]), and […] sterilized H2O. The PCR cycling conditions were as follows: an initial denaturation at 94 °C for 40 s, followed by 35 cycles at […] for 40 s (denaturing), 59 °C for 50 s (annealing) and 72 °C for 3 min. The PCR products were verified and sent for sequencing. Recombinant proteins were generated by transforming plasmids containing the verified […] genes into Escherichia coli BL21 (DE3) cells. We then induced recombinant protein expression using 1 mM isopropyl ß-D-1-thiogalactopyranoside at 37 °C for 6 h. The recombinant proteins were purified using two rounds of […] ion affinity chromatography (GE Healthcare, Milwaukee, WI, USA), following the manufacturer's instructions[5],[53]; the His-tags were removed simultaneously using recombinant enterokinase (Novagen, Madison, WI, USA), following the manufacturer's instructions. The purified proteins were desalted using extensive dialysis. The size and purity of each desalted protein were determined using 15% sodium dodecylsulphate-polyacrylamide gel electrophoresis (SDS-PAGE)[55].
(§2) This assay assumes that the receptors are 100% active, and that each receptor can only bind to one ligand[56].
(§3) Recombinant proteins were dissolved in 50 mM Tris–HCl protein buffer to yield a final concentration of […], respectively. The fluorescence competitive binding were conducted in a 1-cm quartz cell and the fluorescence intensity F95S fluorescence spectrophotometer (Shanghai Lengguang Technology Co., Ltd., Shanghai, China) at 25 °C with the following parameters: excitation of 10 nm; emission slit of 10 nm; sensitivity of 2 s; gain value of 2; excitation wavelength of 337 nm; and an emission wavelength range of 370–500 nm, as a previous study.
(§4) First, the binding constant (Kd) for each recombinant protein to the 1-N-phenyl-naphthylamine (1-NPN) fluorescent probe was detected. In brief, 2 ml of protein solution and 2 μl of 1-NPN solution were added to the quartz cell and thoroughly mixed for 1 min. Peak fluorescence was continuously recorded until it stabilized and began to decrease.
(§5) Next, the ligands were added to the quartz cell along with each receptor, in order to competitively bind to the fluorescent probe. In brief, 2 ml of protein solution and 2 ml of 1-NPN solution were added to the quartz cell, and the fluorescence peaks were scanned and recorded. Then, 2 μl of each ligand was added and allowed to sit for 1 min before the peak fluorescence was scanned and recorded. We then continued to add 2 μl aliquots of the ligand solution until the fluorescence was less than half of the initial value.
(§6) The binding curves were then linearized using a Scatchard plot, which calculates the concentration of the competitor that halves the initial fluorescence intensity (IC50).

The target in a further assay is T2, AgamOBP4 (Anopheles gambiae, UniProt Q8T6R7).
T2 sequence (Q8T6R7 26-150): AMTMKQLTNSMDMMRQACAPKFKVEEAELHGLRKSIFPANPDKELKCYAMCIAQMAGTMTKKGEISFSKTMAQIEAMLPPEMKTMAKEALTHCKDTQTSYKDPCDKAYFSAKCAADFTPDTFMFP
The assay is described as above. Also on record: species or system Anopheles gambiae s.s. The procedure:
as §1, §2, §3, §4, §5, §6

Another assay deals with T3, AgamOBP5 (Anopheles gambiae, UniProt Q8T6R6).
T3 sequence (Q8T6R6 32-154): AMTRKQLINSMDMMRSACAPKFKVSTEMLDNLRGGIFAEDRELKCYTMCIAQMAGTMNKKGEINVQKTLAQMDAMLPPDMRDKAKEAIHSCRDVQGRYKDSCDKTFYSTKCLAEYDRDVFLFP
Described as above. Set-up: species or system Anopheles gambiae s.s. The protocol: as §1, §2, §3, §4, §5, §6

A further assay deals with T4, AgamORC7 (Anopheles gambiae, UniProt Q7QCC7).
T4 construct: His-tag (cleaved yes); made in house; host or cells: Escherichia coli BL21 (DE3)
T4 sequence (Q7QCC7 1-478): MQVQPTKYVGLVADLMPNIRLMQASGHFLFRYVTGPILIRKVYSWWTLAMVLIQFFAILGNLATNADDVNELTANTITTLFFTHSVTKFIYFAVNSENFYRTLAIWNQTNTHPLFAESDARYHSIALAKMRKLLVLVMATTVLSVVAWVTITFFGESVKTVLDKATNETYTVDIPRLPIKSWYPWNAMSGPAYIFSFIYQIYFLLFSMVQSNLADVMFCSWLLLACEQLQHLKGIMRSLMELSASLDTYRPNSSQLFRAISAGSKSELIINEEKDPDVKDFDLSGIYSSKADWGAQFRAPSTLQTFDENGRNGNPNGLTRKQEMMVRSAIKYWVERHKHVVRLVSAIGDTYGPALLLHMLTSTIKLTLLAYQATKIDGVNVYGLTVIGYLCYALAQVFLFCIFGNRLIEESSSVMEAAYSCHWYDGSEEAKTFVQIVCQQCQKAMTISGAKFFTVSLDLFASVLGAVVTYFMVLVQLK
The assay is described as above. Also on record: species or system Anopheles gambiae s.s. The protocol: as §1, §2, §3, §4, §5, §6

For assay [1], the system named is Anopheles gambiae s.s. females. Put plainly: Dual-choice Y-tube olfactory meter repellency test. Format: in vivo. The protocol:
A glass Y-tube (1.6 cm i.d., 12-cm base , two 8-cm arms at a 45° angle from one another) olfactory meter described in our previous study was used in this experiment. […] The control cotton ball with triethyl citrate (without citronellal) was inserted into the other jar. Teflon tube was used to connect all parts of Y-tube olfactory meter. Fresh air was produced by an air pump at a rate of 200 ± 10 ml/min, and purified by active carbon and silicone before flowing into the jars. The headspace of citronellal volatile was combined with the purified air and went through one arm of the Y-tube while purified air without citronellal went through the other arm. The base of the Y-tube was connected to an air collection bottle. One hundred female A. gambiae s.s. were individually released in the air collection bottle (2-cm i.d., 8-cm high), where behavioral responses were monitored and recorded over a 300 s period. The collecting jar, Y-tubes, air collection bottle were cleaned with hot water (> 60 °C) after every 10 individuals were tested, and the cotton roll was renewed every 2 h. The olfactory test was repeated five times.

Entries after “also recorded” stand apart in the source; their conditions may differ.

For orientation: Kd means the concentration at which binding is half-saturated. Low values mean tighter binding, high ones weaker binding. By IC50 is commonly meant the concentration needed to halve the response being measured. The Ki is the equilibrium dissociation constant of an inhibitor or competing ligand from its target. A lower Ki goes with a stronger hold on the target.

As to `c1ccc(Nc2cccc3ccccc23)cc1` [1-NPN, 1-N-phenyl-naphthylamine], the Kd worked out at 2.17 µM at AgamOBP20; 1.14 µM on AgamOBP4; 2.44 µM on AgamOBP5; 1.12 µM on AgamORC7 (Fig. 5 panel d, Scatchard, unit inferred).
As to `CC(C)=CCCC(C)CC=O` (stereo not drawn) [citronellal], the “repellent rate for 50% of individuals (RQ50)” value in assay [1] (Y-tube, quantity series 0.01-100 nmol on cotton ball, Probit analysis) was 4.02 nmol. In addition, in assay [1] (regression of citronellal quantity vs repellent rate, Fig. 1), the “Lg(RQ50)” value was found to be 0.604. Further, the “binding of citronellal in words” value on AgamOBP20 (competition with 1-NPN) and on AgamOBP5 (competition with 1-NPN) was “could not reduce fluorescent rate down below 50%; also recorded: cannot bind well” throughout. The half-maximal inhibitory concentration (IC50) on AgamOBP4 (competition with 1-NPN, 25 °C) came to 1.23 µM; on AgamORC7 (competition with 1-NPN, 25 °C) it was 2.23 µM. The Ki on AgamOBP4 (competition with 1-NPN, 25 °C) was found to be 0.71 µM; at AgamORC7 (competition with 1-NPN, 25 °C), 1.57 µM.
